In the series the test system is Caco-2. Briefly: Permeability across human Caco-2 cells.

In the case of `CN1CCC[C@H]1c1cccnc1` [NICOTINE], the logPapp is given as -4.71.

`C=CCOc1ccccc1OCC(O)CNC(C)C` (stereo unspecified) [OXPRENOLOL]: the logPapp was -4.68.

With `O=C(O)c1ccccc1O` [SALICYLIC ACID], the logPapp is -4.79.

As for `CN/C(=N/CCSCc1nc[nH]c1C)NC#N` [CIMETIDINE], the logPapp was -5.89.

Regarding `CC(=O)[C@H]1CC[C@H]2[C@@H]3CCC4=CC(=O)CC[C@]4(C)[C@H]3CC[C@]12C` [PROGESTERONE], the logPapp is -4.37.

Consider `CNC[C@H](O)c1ccc(O)c(O)c1` [EPINEPHRINE], for which the logPapp is -6.02.

Turning to `Clc1cccc(Cl)c1N=C1NCCN1` [CLONIDINE], the logPapp is on record as -4.59.

Turning to `NCCc1ccc(O)c(O)c1` [DOPAMINE], the logPapp is recorded as -5.03.

`CNC(=C[N+](=O)[O-])NCCSCc1ccc(CN(C)C)o1` [RANITIDINE] displayed a logPapp of -6.31.

As for `CCOC(=O)[C@H](CCc1ccccc1)N[C@@H](C)C(=O)N1CCC[C@H]1C(=O)O`, the logPapp was -5.64.

In turn, `CCCc1nc2c(C)cc(-c3nc4ccccc4n3C)cc2n1Cc1ccc(-c2ccccc2C(=O)O)cc1` came in with a logPapp of -4.82.

The compound `CC(C)(C)NC[C@H](O)COc1nsnc1N1CCOCC1` [TIMOLOL] displayed a logPapp of -4.85.

Turning to `c1ccc(C2(N3CCCCC3)CCCCC2)cc1` [PHENCYCLIDINE], the logPapp is given as -4.61.

`CC(C)NCC(O)COc1cccc2[nH]ccc12` (stereo unspecified) [PINDOLOL] showed a logPapp of -4.78.

`Cn1c(=O)c2[nH]cnc2n(C)c1=O.O` [THEOPHYLLINE] had a logPapp of -4.35.

`O=C(O)c1cc(/N=N/c2ccc(S(=O)(=O)Nc3ccccn3)cc2)ccc1O` [SULFASALAZINE] came in with a logPapp of -6.33.

(Values after ChEMBL document CHEMBL1152590, “Computational modeling of novel inhibitors targeting the Akt pleckstrin homology domain” (Bioorg Med Chem, 2009).)
